ChEMBL document CHEMBL1201862, “PubChem BioAssay data set” (2004)
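The compound was tested at five concentrations on cells cultured in 96-well plates, with a 48-hour exposure period. The concentration for 50% growth inhibition is given as GI50.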 Calls of active or inactive are those of the source. Cut-off read from the data, not from the text of the source: active = GI50 up to about 1.1 µM and inactive = higher.

Assays:
Assay in all cases: NCI anticancer screen, dose series, 48 h
UACC-62 = test system: UACC-62
EKVX = test system: EKVX
NCI-H226 = test system: NCI-H226
SK-MEL-28 = test system: SK-MEL-28
IGROV-1 = test system: IGROV-1
CAKI-1 = test system: CAKI-1
OVCAR-3 = test system: OVCAR-3
HCT-116 = test system: HCT-116
SF-295 = test system: SF-295
HT-29 = test system: HT-29
UO-31 = test system: UO-31
A549 = test system: A549
OVCAR-4 = test system: OVCAR-4
MOLT-4 = test system: MOLT-4
HOP-92 = test system: HOP-92
CCRF-CEM = test system: CCRF-CEM
HCT-15 = test system: HCT-15
K562 = test system: K562
OVCAR-5 = test system: OVCAR-5
M14 = test system: M14

Compound	GI50 (UACC-62)	GI50 (EKVX)	GI50 (NCI-H226)	GI50 (SK-MEL-28)	GI50 (IGROV-1)	GI50 (CAKI-1)	GI50 (OVCAR-3)	GI50 (HCT-116)	GI50 (SF-295)	GI50 (HT-29)	GI50 (UO-31)	GI50 (A549)	GI50 (OVCAR-4)	GI50 (MOLT-4)	GI50 (HOP-92)	GI50 (CCRF-CEM)	GI50 (HCT-15)	GI50 (K562)	GI50 (OVCAR-5)	GI50 (M14)
CC(=O)NC(Cc1ccsc1)C(=O)O (stereo not given)	> 100 µM (inactive)	> 100 µM (inactive)	> 100 µM (inactive)	> 100 µM (inactive)	> 100 µM (inactive)	> 100 µM (inactive)	> 100 µM (inactive)	> 100 µM (inactive)	> 62.2 µM (inactive)	> 100 µM (inactive)	> 100 µM (inactive)	> 100 µM (inactive)	> 100 µM (inactive)	> 100 µM (inactive)	> 100 µM (inactive)	> 100 µM (inactive)	> 100 µM	> 100 µM (inactive)	> 100 µM (inactive)	
CC(C)(Br)C(Br)CCC(C)(Br)C(Br)CO (stereo not given)		> 10 µM (inactive)	> 10 µM (inactive)	> 10 µM (inactive)	> 10 µM (inactive)	> 10 µM (inactive)	> 10 µM (inactive)	> 10 µM (inactive)	> 10 µM (inactive)	> 10 µM (inactive)	> 10 µM (inactive)	> 10 µM (inactive)	> 10 µM (inactive)	> 10 µM (inactive)	> 10 µM (inactive)	> 10 µM (inactive)	> 10 µM	> 10 µM (inactive)		> 10 µM (inactive)
COc1nc(-c2cn(S(=O)(=O)c3ccc(C)cc3)c3ccc(Br)cc23)cc(C(F)(F)F)c1C#N	38.8 µM (inactive)	40 µM (inactive)	18 µM (inactive)	94.4 µM (inactive)	28.4 µM (inactive)	45.2 µM (inactive)	18 µM (inactive)		97.3 µM (inactive)	> 100 µM (inactive)	55 µM (inactive)	> 100 µM (inactive)	41.4 µM (inactive)	31.3 µM (inactive)	31.3 µM (inactive)	24.8 µM (inactive)	41.4 µM	27.8 µM (inactive)	61.5 µM (inactive)	
CN1C(=O)[C@@H]2[C@@H]3c4ccccc4N[C@@H]3c3[nH]c4ccccc4c3[C@@H]2C1=O	14.5 µM (inactive)	27.1 µM (inactive)	60.8 µM (inactive)	24.5 µM (inactive)	0.0502 µM (active)	33.2 µM (inactive)	16.6 µM (inactive)	29.4 µM (inactive)	18.6 µM (inactive)	36.1 µM (inactive)	14.7 µM (inactive)	22.8 µM (inactive)	16.9 µM (inactive)	19.1 µM (inactive)	20 µM (inactive)	17.3 µM (inactive)	18.8 µM	22.3 µM (inactive)	20.1 µM (inactive)	
Cc1ccc(N(O)C(C)(C)C)cc1	> 100 µM (inactive)	> 100 µM (inactive)	> 100 µM (inactive)	> 100 µM (inactive)	> 100 µM (inactive)	> 100 µM (inactive)	> 100 µM (inactive)	> 100 µM (inactive)	> 100 µM (inactive)	> 100 µM (inactive)	> 100 µM (inactive)	> 100 µM (inactive)	> 100 µM (inactive)	> 100 µM (inactive)	> 100 µM (inactive)	> 100 µM (inactive)	> 100 µM	> 100 µM (inactive)	> 100 µM (inactive)	
O=c1[nH]nc(Cc2ccccc2)n1/N=C/c1cccnc1		> 100 µM (inactive)	> 100 µM (inactive)	> 100 µM (inactive)	> 100 µM (inactive)	12.4 µM (inactive)	> 100 µM (inactive)	> 100 µM (inactive)	> 100 µM (inactive)	> 100 µM (inactive)	71.6 µM (inactive)	> 100 µM (inactive)	> 100 µM (inactive)	> 100 µM (inactive)	> 100 µM (inactive)	> 100 µM (inactive)	> 100 µM	> 100 µM (inactive)	> 100 µM (inactive)	> 100 µM (inactive)
COc1ccc(-n2nnc3c(C#N)c(-c4ccccc4)c(C)n3c2=O)cc1	53.7 µM (inactive)	62.2 µM (inactive)	85.1 µM (inactive)	> 100 µM (inactive)	24 µM (inactive)	45.4 µM (inactive)	28.2 µM (inactive)	43.2 µM (inactive)	54.6 µM (inactive)	43.9 µM (inactive)	71.3 µM (inactive)	> 100 µM (inactive)	28.8 µM (inactive)		23.8 µM (inactive)	8.39 µM (inactive)	31.4 µM	18.4 µM (inactive)	> 100 µM (inactive)	81.8 µM (inactive)
CC(=O)/C=C/c1c[nH]c(=O)[nH]c1=O	236 µM (inactive)	239 µM (inactive)	204 µM (inactive)	190 µM (inactive)	151 µM (inactive)	74.3 µM (inactive)	180 µM (inactive)	128 µM (inactive)	304 µM (inactive)	420 µM (inactive)	130 µM (inactive)	305 µM (inactive)	508 µM (inactive)	179 µM (inactive)	8.13 µM (inactive)	92 µM (inactive)	210 µM	229 µM (inactive)	303 µM (inactive)	
C=C(C(=O)O)[C@@H]1C[C@@H](OC(C)=O)[C@]2(C)CC/C=C(\C)CCC[C@H](C)[C@H](O)[C@@H]1O2	47.8 µM (inactive)	45.5 µM (inactive)	14.9 µM (inactive)	77.4 µM (inactive)	36.8 µM (inactive)	71 µM (inactive)	37.4 µM (inactive)	52.8 µM (inactive)	24.7 µM (inactive)	47.3 µM (inactive)		43 µM (inactive)	> 100 µM (inactive)	24.7 µM (inactive)	46 µM (inactive)	22.4 µM (inactive)	41.8 µM	75.2 µM (inactive)	> 100 µM (inactive)	28.2 µM (inactive)
COc1nc2c(nc(N)n2C2OC(CO)C(O)C(O)C2O)c(=O)[nH]1 (stereo not given)	> 100 µM (inactive)	> 100 µM (inactive)	> 100 µM (inactive)	> 100 µM (inactive)	> 100 µM (inactive)	> 100 µM (inactive)	> 100 µM (inactive)	> 100 µM (inactive)	> 100 µM (inactive)	> 100 µM (inactive)	> 100 µM (inactive)	> 100 µM (inactive)	> 100 µM (inactive)		> 100 µM (inactive)	> 100 µM (inactive)		> 100 µM (inactive)		> 100 µM (inactive)
N=C(N)NS(=O)(=O)c1ccc(Nc2c3ccccc3nc3c(C(=O)N4CCN(CCO)CC4)ccc(Cl)c23)cc1	> 100 µM (inactive)		> 100 µM (inactive)	> 100 µM (inactive)	> 100 µM (inactive)	> 100 µM (inactive)	> 100 µM (inactive)	> 100 µM (inactive)	> 100 µM (inactive)	> 100 µM (inactive)	> 100 µM (inactive)	> 100 µM (inactive)	> 100 µM (inactive)	> 100 µM (inactive)	> 100 µM (inactive)	> 100 µM (inactive)	> 100 µM	> 100 µM (inactive)	> 100 µM (inactive)	> 100 µM (inactive)
N=C(N)NS(=O)(=O)c1ccc(NC(=O)c2cccn3c(=O)c4ccccc4nc23)cc1	32.9 µM (inactive)	> 100 µM (inactive)	44.8 µM (inactive)	91 µM (inactive)	56 µM (inactive)	> 100 µM (inactive)	> 100 µM (inactive)	40.8 µM (inactive)	85.5 µM (inactive)	23.2 µM (inactive)	55.1 µM (inactive)	45.6 µM (inactive)	41.6 µM (inactive)	25.5 µM (inactive)	> 100 µM (inactive)	35.6 µM (inactive)		32.3 µM (inactive)		60.8 µM (inactive)
O=[N+]([O-])c1cc2ncc(-c3ccccc3)c(O)c2cc1/C(Cl)=C/c1ccccc1	6.97 µM (inactive)	5.57 µM (inactive)	13 µM (inactive)	17.2 µM (inactive)	5.83 µM (inactive)	19.1 µM (inactive)	2.59 µM (inactive)	6.89 µM (inactive)	6.65 µM (inactive)	13.4 µM (inactive)	9.89 µM (inactive)	10.1 µM (inactive)	3.2 µM (inactive)	6.85 µM (inactive)	3.47 µM (inactive)	4.43 µM (inactive)	11.1 µM	5.86 µM (inactive)	> 44.7 µM (inactive)	
Cc1nc(C(N)=S)sc1C(=O)CC(=O)C(=O)Nc1ccc(Br)cc1	> 100 µM (inactive)	> 100 µM (inactive)	> 100 µM (inactive)	> 100 µM (inactive)	> 100 µM (inactive)	> 100 µM (inactive)	> 100 µM (inactive)	> 100 µM (inactive)	> 100 µM (inactive)	> 100 µM (inactive)	> 100 µM (inactive)	> 100 µM (inactive)	> 100 µM (inactive)		> 100 µM (inactive)	> 100 µM (inactive)	> 100 µM	> 100 µM (inactive)	> 100 µM (inactive)	> 100 µM (inactive)
C=CCOCCCC(=O)C(=[N+]=[N-])C(=O)OC	> 100 µM (inactive)		> 100 µM (inactive)	> 100 µM (inactive)	> 100 µM (inactive)	> 100 µM (inactive)	> 100 µM (inactive)	> 100 µM (inactive)	> 100 µM (inactive)	> 100 µM (inactive)	> 100 µM (inactive)	> 100 µM (inactive)	> 100 µM (inactive)	> 100 µM (inactive)	> 100 µM (inactive)	> 100 µM (inactive)	> 100 µM	> 100 µM (inactive)	> 100 µM (inactive)	> 100 µM (inactive)
